Results published in ChEMBL document CHEMBL3822440, “Semi-synthesis and antiproliferative evaluation of PEGylated pentacyclic triterpenes” (Eur J Med Chem, 2016).

Tests used:
[1] = Cytotoxicity against mouse B16F10 cells assessed as growth inhibition after 72 hrs by MTT assay; format: functional, cell-based; conditions: B16-F10, 72 h
HT-29 [2] = test: Cytotoxicity against human HT-29 cells assessed as growth inhibition after 72 hrs by MTT assay; format: functional, cell-based; conditions: HT-29, 72 h
HepG2 [3] = test: Cytotoxicity against human HepG2 cells assessed as growth inhibition after 72 hrs by MTT assay; format: functional, cell-based; conditions: HepG2, 72 h
B16-F10 [4] = test: Potency index, ratio of maslinic acid IC50 to compound IC50 for mouse B16F10 cells; format: functional
HT-29 [5] = test: Potency index, ratio of maslinic acid IC50 to compound IC50 for human HT-29 cells; format: functional
HepG2 [6] = test: Potency index, ratio of maslinic acid IC50 to compound IC50 for human HepG2 cells; format: functional
[7] = Induction of apoptosis in mouse B16F10 cells assessed as live cells at cytotoxic IC50 after 72 hrs by Annexin V-FITC/propidium iodide staining based flow cytometry (reference value: 97.55 +/- 0.5%); format: functional, B16-F10
[8] = Induction of apoptosis in mouse B16F10 cells assessed as early apoptotic cells at cytotoxic IC50 after 72 hrs by Annexin V-FITC/propidium iodide staining based flow cytometry (reference value: 0.75 +/- 0.07%); format: functional, B16-F10
[9] = Induction of apoptosis in mouse B16F10 cells assessed as late apoptotic cells at cytotoxic IC50 after 72 hrs by Annexin V-FITC/propidium iodide staining based flow cytometry (reference value: 0.75 +/- 0.21%); format: functional, B16-F10
[10] = Induction of apoptosis in mouse B16F10 cells assessed as necrotic cells at cytotoxic IC50 after 72 hrs by Annexin V-FITC/propidium iodide staining based flow cytometry (reference value: 0.75 +/- 0.07%); format: functional, B16-F10
HT-29 [11] = test: Induction of apoptosis in human HT-29 cells assessed as live cells at cytotoxic IC50 after 72 hrs by Annexin V-FITC/propidium iodide staining based flow cytometry (reference value: 96.65 +/- 0.78%); format: functional
HT-29 [12] = test: Induction of apoptosis in human HT-29 cells assessed as early apoptotic cells at cytotoxic IC50 after 72 hrs by Annexin V-FITC/propidium iodide staining based flow cytometry (reference value: 1.65 +/- 0.07%); format: functional
HT-29 [13] = test: Induction of apoptosis in human HT-29 cells assessed as late apoptotic cells at cytotoxic IC50 after 72 hrs by Annexin V-FITC/propidium iodide staining based flow cytometry (reference value: 0.65 +/- 0.35%); format: functional
HT-29 [14] = test: Induction of apoptosis in human HT-29 cells assessed as necrotic cells at cytotoxic IC50 after 72 hrs by Annexin V-FITC/propidium iodide staining based flow cytometry (reference value: 1.05 +/- 0.35%); format: functional
HepG2 [15] = test: Induction of apoptosis in human HepG2 cells assessed as live cells at cytotoxic IC50 after 72 hrs by Annexin V-FITC/propidium iodide staining based flow cytometry (reference value: 99.55 +/- 0.07%); format: functional
HepG2 [16] = test: Induction of apoptosis in human HepG2 cells assessed as early apoptotic cells at cytotoxic IC50 after 72 hrs by Annexin V-FITC/propidium iodide staining based flow cytometry (reference value: 0.3 +/- 0.01%); format: functional
HepG2 [17] = test: Induction of apoptosis in human HepG2 cells assessed as late apoptotic cells at cytotoxic IC50 after 72 hrs by Annexin V-FITC/propidium iodide staining based flow cytometry relative to control; format: functional
HepG2 [18] = test: Induction of apoptosis in human HepG2 cells assessed as necrotic cells at cytotoxic IC50 after 72 hrs by Annexin V-FITC/propidium iodide staining based flow cytometry (reference value: 0.1 +/- 0.01%); format: functional
[19] = Cell cycle arrest in mouse B16F10 cells assessed as accumulation at G0/G1 phase at cytotoxic IC50 after 72 hrs by propidium iodide staining based flow cytometry (reference value: 50.69 +/- 0.61%); format: functional, B16-F10
[20] = Cell cycle arrest in mouse B16F10 cells assessed as accumulation at S phase at cytotoxic IC50 after 72 hrs by propidium iodide staining based flow cytometry (reference value: 48.31 +/- 0.74%); format: functional, B16-F10
[21] = Cell cycle arrest in mouse B16F10 cells assessed as accumulation at G2/M phase at cytotoxic IC50 after 72 hrs by propidium iodide staining based flow cytometry (reference value: 1.01 +/- 0.13%); format: functional, B16-F10
HT-29 [22] = test: Cell cycle arrest in human HT-29 cells assessed as accumulation at G0/G1 phase at cytotoxic IC50 after 72 hrs by propidium iodide staining based flow cytometry (reference value: 55.18 +/- 0.22%); format: functional
HT-29 [23] = test: Cell cycle arrest in human HT-29 cells assessed as accumulation at S phase at cytotoxic IC50 after 72 hrs by propidium iodide staining based flow cytometry (reference value: 48.31 +/- 1.49%); format: functional
HT-29 [24] = test: Cell cycle arrest in human HT-29 cells assessed as accumulation at G2/M phase at cytotoxic IC50 after 72 hrs by propidium iodide staining based flow cytometry (reference value: 6.23 +/- 1.7%); format: functional
HepG2 [25] = test: Cell cycle arrest in human HepG2 cells assessed as accumulation at G0/G1 phase at cytotoxic IC50 after 72 hrs by propidium iodide staining based flow cytometry (reference value: 39.41 +/- 1.56%); format: functional
HepG2 [26] = test: Cell cycle arrest in human HepG2 cells assessed as accumulation at S phase at cytotoxic IC50 after 72 hrs by propidium iodide staining based flow cytometry (reference value: 54.71 +/- 2.37%); format: functional
HepG2 [27] = test: Cell cycle arrest in human HepG2 cells assessed as accumulation at G2/M phase at cytotoxic IC50 after 72 hrs by propidium iodide staining based flow cytometry (reference value: 8.47 +/- 2.55%); format: functional
[28] = Disruption of mitochondrial membrane potential in mouse B16F10 cells assessed as rhodamine123 positive cells at cytotoxic IC50 after 72 hrs by propidium iodide staining based fluorescence spectroscopic analysis (reference value: 95.6 +/- 0.57%); format: functional, B16-F10
[29] = Disruption of mitochondrial membrane potential in mouse B16F10 cells assessed as rhodamine123 negative cells at cytotoxic IC50 after 72 hrs by propidium iodide staining based fluorescence spectroscopic analysis (reference value: 4.45 +/- 0.64%); format: functional, B16-F10
HT-29 [30] = test: Disruption of mitochondrial membrane potential in human HT-29 cells assessed as rhodamine123 positive cells at cytotoxic IC50 after 72 hrs by propidium iodide staining based fluorescence spectroscopic analysis (reference value: 94.25 +/- 0.35%); format: functional
HT-29 [31] = test: Disruption of mitochondrial membrane potential in human HT-29 cells assessed as rhodamine123 negative cells at cytotoxic IC50 after 72 hrs by propidium iodide staining based fluorescence spectroscopic analysis (reference value: 5.8 +/- 0.42%); format: functional
HepG2 [32] = test: Disruption of mitochondrial membrane potential in human HepG2 cells assessed as rhodamine123 positive cells at cytotoxic IC50 after 72 hrs by propidium iodide staining based fluorescence spectroscopic analysis (reference value: 88.3 +/- 8.87%); format: functional
HepG2 [33] = test: Disruption of mitochondrial membrane potential in human HepG2 cells assessed as rhodamine123 negative cells at cytotoxic IC50 after 72 hrs by propidium iodide staining based fluorescence spectroscopic analysis (reference value: 11.7 +/- 6.8%); format: functional
B16-F10 [34] = test: Potency index, ratio of oleanolic acid IC50 to compound IC50 for mouse B16F10 cells; format: functional
HT-29 [35] = test: Potency index, ratio of oleanolic acid IC50 to compound IC50 for human HT-29 cells; format: functional
HepG2 [36] = test: Potency index, ratio of oleanolic acid IC50 to compound IC50 for human HepG2 cells; format: functional

Row | Compound | IC50 [1] | IC50 (HT-29 [2]) | IC50 (HepG2 [3]) | Activity [7] | Activity [8] | Activity [9] | Activity [10] | Activity (HT-29 [11]) | Activity (HT-29 [12]) | Activity (HT-29 [13]) | Activity (HT-29 [14]) | Activity (HepG2 [15]) | Activity (HepG2 [16]) | Activity (HepG2 [17]) | Activity (HepG2 [18]) | Activity [19] | Activity [20] | Activity [21] | Activity (HT-29 [22]) | Activity (HT-29 [23]) | further results
1 | COCCOCCOCC(=O)O[C@@H]1C[C@]2(C)[C@H]3CC=C4[C@@H]5CC(C)(C)CC[C@]5(C(=O)OCc5ccccc5)CC[C@@]4(C)[C@]3(C)CC[C@H]2C(C)(C)[C@H]1OC(=O)COCCOCCOC | 21.1 µM | 31.6 µM | 12.8 µM | 2.7% | 29.6% | 67.25% | 0.8% | 48.95% | 43.95% | 6.7% | 0.15% | 37% | 18.65% | 44.35% | 0% | 83.03% | 13.13% | 3.85% | 91.87% | 6.63% | Ratio IC50 (B16-F10 [4]): 1.7; Ratio IC50 (HT-29 [5]): 1; Ratio IC50 (HepG2 [6]): 7.8; Activity (HT-29 [24]): 1.51%; Activity (HepG2 [25]): 65.2%; Activity (HepG2 [26]): 19.76%; Activity (HepG2 [27]): 15.04%; Activity [28]: 81.35%; Activity [29]: 18.6%; Activity (HT-29 [30]): 3.15%; Activity (HT-29 [31]): 96.9%; Activity (HepG2 [32]): 45.7%; Activity (HepG2 [33]): 54.25%
2 | COCCOCCOCC(=O)O[C@H]1CC[C@]2(C)[C@H]3CC=C4[C@@H]5CC(C)(C)CC[C@]5(C(=O)O)CC[C@@]4(C)[C@]3(C)CC[C@H]2C1(C)C | 17.2 µM | 13.5 µM | 17.5 µM | 52.75% | 6.8% | 39.6% | 0.35% | 51.85% | 34.7% | 13.45% | 0% | 43.5% | 38.65% | 17.7% | 0.2% | 74.28% | 25.44% | 0.28% | 63.47% | 49.98% | Ratio IC50 (B16-F10 [34]): 6.2; Ratio IC50 (HT-29 [35]): 31.9; Ratio IC50 (HepG2 [36]): 12.1; Activity (HT-29 [24]): 0%; Activity (HepG2 [25]): 38.88%; Activity (HepG2 [26]): 45.44%; Activity (HepG2 [27]): 14.18%; Activity [28]: 79.45%; Activity [29]: 20.65%; Activity (HT-29 [30]): 88.65%; Activity (HT-29 [31]): 11.35%; Activity (HepG2 [32]): 13.95%; Activity (HepG2 [33]): 86.05%
3 | CC1(C)CC[C@]2(C(=O)NCCCOCCOCCOCCCN)CC[C@]3(C)C(=CC[C@@H]4[C@@]5(C)CC[C@H](O)C(C)(C)[C@@H]5CC[C@]43C)[C@@H]2C1 | 3.78 µM | 3.58 µM | 0.22 µM | 27.55% | 59.65% | 12.85% | 0% | 72.45% | 19.7% | 7.45% | 0.25% | 41.35% | 35.9% | 22.45% | 0.35% | 63.89% | 31.33% | 4.78% | 87.11% | 4.78% | Ratio IC50 (B16-F10 [34]): 28.1; Ratio IC50 (HT-29 [35]): 120.1; Ratio IC50 (HepG2 [36]): 962.7; Activity (HT-29 [24]): 8.12%; Activity (HepG2 [25]): 52.7%; Activity (HepG2 [26]): 46.97%; Activity (HepG2 [27]): 0.34%; Activity [28]: 20.75%; Activity [29]: 79.3%; Activity (HT-29 [30]): 23.75%; Activity (HT-29 [31]): 76.3%; Activity (HepG2 [32]): 80.45%; Activity (HepG2 [33]): 19.6%
